# Earlier results, collected in patent publication US20230200430A1, “ORAL PRODUCTS WITH HIGH-DENSITY LOAD” (NICOVENTURES TRADING LIMITED, priority 2021, published 2023).
# Conditions: qualitative statement
row,solubility in water / aqueous environment,SMILES
1,insoluble in water,COC(=O)/C=C/C(C)=C\C=C\C(C)=C\C=C\C=C(C)\C=C\C=C(C)\C=C\C(=O)O [Bixin]
2,water soluble,"CC(/C=C/C=C(C)/C=C/C(=O)O)=C\C=C\C=C(C)\C=C\C=C(C)\C=C\C(=O)O (stereo in doubt) [norbixin, (2E,4E,6E,8E,10E,12E,14E,16E,18E)-4,8,13,17-tetramethylicosa-2,4,6,8,10,12,14,16,18-nonaenedioic acid]"

row,SMILES,solubility in water / aqueous environment
1,"C=C(C)[C@@H]1CCC(C)=C[C@H]1c1c(O)cc(CCCCC)cc1O [CBD, cannabidiol, reference compound]",insoluble in an aqueous environment
